The target of experiment [1] is T1, ASIC1a (Homo sapiens, UniProt P78348).
T1 sequence (P78348 1-528): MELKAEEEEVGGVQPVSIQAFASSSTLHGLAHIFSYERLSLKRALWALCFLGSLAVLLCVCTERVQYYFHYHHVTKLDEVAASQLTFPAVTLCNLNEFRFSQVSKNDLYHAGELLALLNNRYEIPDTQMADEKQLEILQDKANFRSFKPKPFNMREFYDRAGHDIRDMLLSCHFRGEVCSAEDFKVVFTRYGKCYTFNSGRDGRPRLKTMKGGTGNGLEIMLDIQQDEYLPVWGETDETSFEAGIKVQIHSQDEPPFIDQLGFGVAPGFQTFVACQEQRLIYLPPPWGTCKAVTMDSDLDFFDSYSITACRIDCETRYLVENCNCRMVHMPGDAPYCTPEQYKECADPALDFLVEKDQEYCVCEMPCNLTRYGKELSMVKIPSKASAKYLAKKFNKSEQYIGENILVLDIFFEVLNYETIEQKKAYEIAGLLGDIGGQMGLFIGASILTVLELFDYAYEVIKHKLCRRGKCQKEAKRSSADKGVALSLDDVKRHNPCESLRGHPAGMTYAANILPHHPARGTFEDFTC
The experiment can be described thus: Calcium-imaging (FLIPR) of MES-induced calcium response in ASIC1a expressing HEK293 cells. On the set-up: host or cells: HEK293. The experiment is classed as cell-based. As to the method: Identification of ASIC Antagonists Using Calcium-Imaging
ASIC1a expressing HEK293 cells are grown in culture medium (DMEM with 10% FBS), in polystyrene culture flasks (175 mm 2) at 37° C. in a humidified atmosphere of 5% CO2. Confluency of cells should be 80-90% on day of plating. Cells are rinsed with 10 ml of PBS and cells are re-suspended by addition of culture medium and trituration with a 25 ml pipette.
The cells are seeded at a density of approximately 1×10^6 cells/ml (100 μl/well) in black-walled, clear bottom, 96-well plates pre-treated with 10 mg/l poly-D-lysin (75 μl/well for ≧30 min). Plated cells are allowed to proliferate for 24 h before loading with dye.
Loading with Fluorescent Calcium Dye Fluo-4/AM
Fluo-4/AM (1 mg, Molecular Probes) is dissolved in 912 μl DMSO. The Fluo-4/AM stock solution (1 mM) is diluted with culture medium to a final concentration of 2 μM (loading solution).
The culture medium is aspirated from the wells, and 50 μl of the Fluo-4/AM loading solution is added to each well. The cells are incubated at 37° C. for 30 min.
After the loading period, the loading solution is aspirated and the cells are washed twice with 100 μl modified Assay Buffer (145 mM NaCl, 5 mM KCl, 5 mM CaCl2, 1 mM MgCl2, 10 mM HEPES, pH 7.4) to remove extracellular dye. Following the second wash, 100 μl modified Assay Buffer is added to each well and the fluorescence is measured in FLIPR™ or FlexStation™ (Molecular Devices, USA), or any other suitable equipment known to the skilled in the art.
Temperature: Room temperature (20-22° C.)
First addition: 50 μl test solution at a rate of 30 μl/sec and a starting height of […]
Second addition: 50 μl MES solution (20 mM, 5 mM final concentration) at a rate of 35 μl/sec and a starting height of 150 μl.
Reading intervals: pre-incubation—10 sec×7 and 3 sec×3 antagonist phase—3 sec×17 and 10 sec×12
Addition plates (compound test plate and MES plate) are placed on the right and left positions in the FLIPR tray, respectively. Cell plates are placed in the middle position and the ASIC1a program is effectuated. FLIPR will then take the appropriate measurements in accordance with the interval settings above. Fluorescence obtained after stimulation is corrected for the mean basal fluorescence (in modified Assay Buffer).
Hit Confirmation and Characterization of Active Substances
The MES-induced peak calcium response, in the presence of test substance, is expressed relatively to the MES response alone. Test substances that block the MES-induced calcium response are re-tested in triplicates. […]

Experiment [2] deals with T1, ASIC1a. Put plainly: Two-electrode voltage clamp of acid-induced currents in Xenopus laevis oocytes. Further details: expressed in transfected cells; host or cells: Xenopus laevis oocytes, nuclear microinjection of an expression vector such as pCDNA3. Type of experiment: cell-based. The settings on record: 50 μM, Xenopus oocytes; read-out: % inh. at 50 μM (Xo). How it is done:
Screening and Bioanalysis of ASIC Antagonists in Xenopus laevis oocytes
This example describes the in vitro assessment of the activity of the compounds of the present invention.
Two-electrode voltage clamp electrophysiological assays in Xenopus laevis oocytes expressing gated ion channels are performed as follows:
Oocytes are surgically removed from adult Xenopus laevis and treated for 2 h at room temperature with 1 mg/ml type I collagenase (Sigma) in Barth's solution under mild agitation. Selected oocytes at stage IV-V are defolliculated manually before nuclear microinjection of 2.5-5 ng of a suitable expression vector, such as pCDNA3, comprising the nucleotide sequence encoding a gated ion channel subunit protein. In such an experiment, the oocytes express homomultimeric proton-gated ion channels on their surface. In an alternate experiment, one, two, three or more vectors comprising the coding sequences for distinct gated ion channel subunits are co-injected in the oocyte nuclei. In the latter case, oocytes express heteromultimeric proton-gated ion channels. For example, ASIC2a and/or ASIC3 subunits in pcDNA3 vector are co-injected at a 1:1 cDNA ratio. After 2-4 days of expression at 19° C. in Barth's solution containing […] gentamicin and 1.8 mM CaCl2, gated ion channels are activated by applying an acidic solution (pH<7) and currents are recorded in a two electrode voltage-clamp configuration, using an OC-725B amplifier (Warner Instruments). Currents are acquired and digitized at 500 Hz on an Apple Imac G3 computer with an A/D NB-MIO-16XL interface (National Instruments) and recorded traces are post-filtered at 100 Hz in Axograph (Axon Instruments) (Neher, E. and Sakmann, B. (1976) Nature 260:799-802). Once impaled with the microelectrodes, oocytes are continuously superfused at 10-12 ml/min with a modified Ringer's solution containing 97 mM NaCl, 2 mM KCl, 1.8 mM CaCl2, and 10 mM HEPES brought to pH 7.4 with NaOH (Control Ringer). Test Ringer solution is prepared by replacing HEPES with MES and adjusting the pH to the desired acidic value. Compounds of the present invention are prepared in both the Control and Test Ringer solutions and applied to oocytes at room temperature through a computer-controlled switching valve system. Osmolarity of all solutions is adjusted to 235 mOsm with choline chloride. Similarly, recordings can also be acquired in an automated multichannel oocytes system as the OpusExpress™ (Molecular Devices, Sunnyvale, USA).
FIGS. 1A and 2A illustrate the inhibitory effects of Compounds 12 and 44 on acid-induced activation of recombinant homomeric hASIC1a channels. FIGS. 1A and 2A show the dose-dependent inhibition of the acid-induced hASIC1a currents recorded from Xenopus laevis oocytes using the two-electrode voltage clamp method (as described in this example) in the absence or presence of increasing concentration of the compounds.
(In general: Two-electrode voltage clamp is typically applied to oocytes expressing channels or transporters.)

Setting [3] is: MES-induced calcium response, ASIC1a expressing HEK293 cells, read-out: IC50 (FLIPR).

Read-outs that look alike come from different tables or passages of the source.

As usually defined, the IC50 is the concentration that inhibits the measured activity by half. Regarding `CCN1CCc2c(-c3ccccc3OC)cc(C#N)c(N)c2C1` [Compound 45], the IC50 on ASIC1a [1] (setting [3]) was in the range of 10 to 20 µM. The inhibition at 50 µM on ASIC1a [2] is more than 50%.
With `CCN1CCc2c(-c3cc(C)cc(C)c3)cc(C#N)c(N)c2C1` [Compound 48], the IC50 on ASIC1a [1] was less than 10 µM. In addition, the inhibition at 50 µM at ASIC1a [2] is more than 50%.
As for `CCN1CCc2c(-c3ccccc3)cc(C#N)c(N(C)C)c2C1` [Compound 50], the IC50 on ASIC1a [1] (setting [3]) is 10 to 20 µM. Besides, on ASIC1a [2], the inhibition at 50 µM was more than 50%.

Source of the values: patent US20080004282A1, “Compositions and methods for modulating gated ion channels” (PainCeptor Pharma Corporation, priority 2006, published 2008).
